In patent US20040101503A1, “Use of protectin activator to enhance the skin's resistance, composition comprising such activators and selection method” (SOCIETE L'OREAL S.A., priority 2002, published 2004):

Test system: messenger RNAs coding for the protein CD59
Assay: cDNA array of CD59 mRNA on standard human dermal fibroblasts
Type: cell-based
Conditions: for Comparision of the Control Population with the Population Exposed to the Extract (in %) / Fibroblasts Exposed to the Extract (RE): 15 micrograms/ml; for Comparision of the Control Population with the Population Exposed to the Extract (in %): control = 100; for Fibroblasts Exposed to the Extract (RE): control fibroblasts 6.1 RE
Method: The methodology used is that recommended by Clontech (Palo Alto, USA). […] The total RNA solutions were treated with DNAse I in order to remove any trace of contaminant DNA, in accordance with the supplier's recommendations. The quality of the RNA was then verified on agarose gel and the RNA solutions were adjusted to 1 μg/ml.
The next step was the purification of the messenger RNAs (mRNA) by hybridization of the poly(A) ends of the mRNAs using biotinylated oligo(dT) primers and selective capture on streptavidin beads, in accordance with the Atlaspure protocol (Clontech). ^33P-labeled DNA probes were produced by reverse transcription of the niRNAs bound to poly(dT) beads, using a pool of specific primers of the immobilized sequences on membranes (arrays), in the presence of (α^33P)-dATP. This step used the reagents and the protocol recommended by Clontech. The labeled probes were purified by chromatography on an exclusion column, and the quality and equivalence of the labeled probes was evaluated by liquid scintillation counting.
cDNA array membranes were pretreated and then the cDNAs immobilized on each membrane were hybridized (68° C., overnight) with the corresponding labeled probes. The filters were subsequently washed and placed in individual plastic bags for analysis. Analysis took place by direct quantification of the radioactivity of the spots using a Cyclone phosphoimager (Packard). The results were expressed in relative expression units (RE, radioactivity of the spot corresponding to each gene, corrected for the background noise and for the differences in intensity of labeling of the probes).
The study was carried out on standard human fibroblasts. Dermal fibroblasts were cultivated in DMEM (Life Technology, ref. 21969035) containing L-glutamine (2 mM, Life Technology, ref. 25030024), 50 IU/ml penicillin and 50 μg/ml streptomycin (Life Technology, ref. 15070063) and 1% foetal calf serum (v/v, Life Technology, ref. 10106151).
A fraction of a root extract of Panax notoginseng (San Qi) containing only the saponins was tested for its activity in accordance with the protocol described in the foregoing example by the technique of cDNA array on fibroblasts. The two principal saponins from the extract were also tested.
All the products were tested at a final concentration of 15 micrograms/ml

In the case of `CC(C)=CCC[C@](C)(O[C@@H]1O[C@H](CO[C@@H]2O[C@H](CO)[C@@H](O)[C@H](O)[C@H]2O)[C@@H](O)[C@H](O)[C@H]1O)[C@H]1CC[C@]2(C)[C@@H]1[C@H](O)C[C@@H]1[C@@]3(C)CC[C@H](O[C@@H]4O[C@H](CO)[C@@H](O)[C@H](O)[C@H]4O[C@@H]4O[C@H](CO)[C@@H](O)[C@H](O)[C@H]4O)C(C)(C)[C@@H]3CC[C@]12C` [Rb1, Rb1 ginsenoside], the “effect on expression of messenger RNAs coding for the protein CD59 (in words)” value is reported as “significantly modify”, the “Comparision of the Control Population with the Population Exposed to the Extract (in %)” value is reported as 277% and the “Fibroblasts Exposed to the Extract (RE)” value is reported as 13.8 RE.

With `CC(C)=CCC[C@](C)(O[C@@H]1O[C@H](CO)[C@@H](O)[C@H](O)[C@H]1O)[C@H]1CC[C@]2(C)[C@@H]1[C@H](O)C[C@@H]1[C@@]3(C)CC[C@H](O)C(C)(C)[C@@H]3[C@@H](O[C@@H]3O[C@H](CO)[C@@H](O)[C@H](O)[C@H]3O)C[C@]12C` [Rg1, Rg1 ginsenoside] the “effect on expression of messenger RNAs coding for the protein CD59 (in words)” value was “significantly modify”, the “Comparision of the Control Population with the Population Exposed to the Extract (in %)” value was 277% and the “Fibroblasts Exposed to the Extract (RE)” value was 16.8 RE.
